# Data published in ChEMBL document CHEMBL1201862, “PubChem BioAssay data set” (2004).
# Active and inactive are the calls of the source.
# Tests used:
# [1] = biological target: Induced myeloid leukemia cell differentiation protein Mcl-1 (Homo sapiens, UniProt Q07820); format: functional
# [2] = biological target: Heat shock protein HSP 90-alpha (Homo sapiens, UniProt P07900); format: functional, organism-based
# [3] = cytotoxicity in HEK-293T cells, dose response, cytotoxicity control for TCR NF-kB inhibitor project, luminescence, T-cell screen hits (AID 489026); format: functional, cell-based;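 further: cells exposed to compound about 14 hours before the viability readout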
# [4] = cells
# [5] = HEp-2 cell cytotoxicity, dose response, cytotoxicity control for RSV inhibitor project, HTS (AID 2410); format: functional; settings: human respiratory syncytial virus
# [6] = biological target: T1, Mannose-6-phosphate isomerase (Homo sapiens, UniProt P34949); assay: human PMI inhibitors, high substrate, primary screen, biochemical, fluorescence intensity, high mannose 6-phosphate (AID 1220)
# T1 sequence (P34949 whole entry): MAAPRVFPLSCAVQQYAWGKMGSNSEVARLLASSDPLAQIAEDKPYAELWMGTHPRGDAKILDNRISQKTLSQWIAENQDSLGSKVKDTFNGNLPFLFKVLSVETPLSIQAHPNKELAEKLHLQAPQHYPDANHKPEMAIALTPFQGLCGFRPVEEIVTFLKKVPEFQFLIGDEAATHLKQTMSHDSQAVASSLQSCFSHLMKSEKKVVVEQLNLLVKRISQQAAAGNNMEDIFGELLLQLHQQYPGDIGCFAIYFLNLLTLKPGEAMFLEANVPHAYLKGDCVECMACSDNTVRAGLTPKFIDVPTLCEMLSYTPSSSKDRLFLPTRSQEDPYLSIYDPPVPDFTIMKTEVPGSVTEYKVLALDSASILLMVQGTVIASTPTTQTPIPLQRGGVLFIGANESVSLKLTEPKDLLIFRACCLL
# [7] = growth suppression of beta-catenin-knockout colon cells, dose response, cell-based, HCT116, human colon tumor (AID 1045); format: functional;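 further: HCT116 colon tumor cells with beta catenin knocked out; cells exposed to compound for 60 hours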
# [8] = biological target: T2, Microphthalmia-associated transcription factor (Homo sapiens, UniProt O75030); assay: TRPM1 promoter luciferase signal decrease, dose response, MITF inhibitor project, cell-based, SK-MEL-5, cherry-picked, set 3 (AID 493073); format: functional
# T2 sequence (O75030 whole entry): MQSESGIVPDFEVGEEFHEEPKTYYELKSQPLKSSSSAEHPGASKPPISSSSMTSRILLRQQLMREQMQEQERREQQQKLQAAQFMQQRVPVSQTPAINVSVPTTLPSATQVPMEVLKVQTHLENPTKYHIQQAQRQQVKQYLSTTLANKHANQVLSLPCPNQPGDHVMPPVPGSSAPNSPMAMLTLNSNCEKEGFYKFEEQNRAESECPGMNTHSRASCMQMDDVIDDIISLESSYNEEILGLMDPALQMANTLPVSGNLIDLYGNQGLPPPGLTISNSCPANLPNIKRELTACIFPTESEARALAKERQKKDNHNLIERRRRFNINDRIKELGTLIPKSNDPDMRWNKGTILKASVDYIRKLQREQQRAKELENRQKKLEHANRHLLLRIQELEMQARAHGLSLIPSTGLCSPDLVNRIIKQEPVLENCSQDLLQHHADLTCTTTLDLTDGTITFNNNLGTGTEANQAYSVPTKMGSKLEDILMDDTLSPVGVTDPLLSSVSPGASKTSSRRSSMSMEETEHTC
# [9] = biological target: Large T antigen (Simian virus 40, UniProt P03070); format: functional, Betapolyomavirus macacae;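 further: Confirmatory-stage PubChem screen for compounds that inhibit SV40 T antigen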
# [10] = growth suppression of PTEN-null colon cells, dose response, cell-based, HCT116 PTEN knockout (AID 1047); format: functional;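 further: HCT116 colon tumor cells with PTEN knocked out; cells exposed to compound for 60 hours before readout; potency for loss of cell viability measured by luminescence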
# [11] = biological target: Luciferin 4-monooxygenase (Photinus pyralis, UniProt P08659); assay: firefly luciferase enzyme inhibitors, dose response, biochemical, luminescence (AID 1891)
# [12] = Luminescence Cell-Based Dose Confirmation HTS to Identify Inhibitors of Platelet Dense Granule Release. [Related pubchem assays: 1663 (Primary HTS), 1678 (Summary of Project)]; format: functional
# [13] = microbe, parasite or virus in culture; format: functional; settings: Mycobacterium tuberculosis
# [14] = inhibitors of intracellular T. cruzi replication, confirmation, NIH3T3 host cells, beta-gal luminescence (AID 2044); format: functional, cell-based;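 further: intracellular parasites grown in NIH/3T3 mouse fibroblasts as host cells; luminescent beta-galactosidase reporter signal from transgenic T. cruzi replicating inside host cells; inhibitors lower the luminescence signal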
# [15] = cytotoxicity toward NIH3T3 fibroblasts, dose response, counter-screen, cell-based, ATP luminescence, mouse fibroblasts (AID 2010); format: functional;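 further: cells exposed to compound for about 90 hours before reading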
# [16] = Vero E6 cell cytotoxicity, dose response, cytotoxicity control for non-replicating M. tuberculosis project, secondary assay (AID 492998); format: functional, VeroE6; settings: Vero C1008
# [17] = THP-1 cell cytotoxicity, dose response, cytotoxicity control for non-replicating M. tuberculosis project (AID 489025); format: functional
# [18] = cells; format: functional
# [19] = tested on: Vero; assay: cells; format: functional; settings: Chlorocebus sabaeus
# [20] = biological target: Genome polyprotein (dengue virus type 2, UniProt P29990); assay: Dengue-2 NS5 methyltransferase inhibitors, primary screen, biochemical, confirmation dose response (AID 588689); format: functional
# [21] = NIH-3T3 fibroblast cytotoxicity, dose response, cytotoxicity control, cell-based, fluorescence, Alamar Blue, secondary assay (AID 2327); format: functional;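 further: NIH-3T3 mouse fibroblasts cultured with fluconazole at 8 µg/mL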
# [22] = C. albicans growth with fluconazole, confirmation, fluorescence, retest (AID 2467); format: functional, cell-based
# [23] = tested on: INS1; assay: beta cell apoptosis inhibitors, cytokine rescue, dose response, luminescence, retest (AID 449756); format: functional, cell-based; settings: Rattus norvegicus;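 further: cell death triggered by IL-1 beta plus TNF-alpha plus IFN-gamma mixture; protective hits raise ATP signal compared with cytokine alone wells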
# [24] = P. falciparum ATP4 D1247Y mutant growth inhibitors, dose response, NITD609-resistant line, SYBR Green, dry powder (AID 1159571); format: functional, cell-based;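 further: parasites synchronized at ring stage by sorbitol before testing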
# [25] = P. falciparum Dd2 growth inhibitors, dose response, SYBR Green, dry powder samples (AID 1159566); format: functional, cell-based;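 further: potency for growth inhibition with lower SYBR green DNA signal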
# [26] = P. falciparum 3D7-ScDHODH growth inhibitors, dose response, SYBR Green, dry powder samples (AID 1159570); format: functional, cell-based;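 further: parasite growth measured after 72 hours of compound exposure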
# [27] = P. falciparum Dd2 growth inhibitors, dose response, SYBR Green, cherry-picked samples (AID 1159567); format: functional, cell-based
# [28] = biological target: T3, Polyadenylate-binding protein 1 (Homo sapiens, UniProt P11940); assay: PABP1 MLLE–PAM2 binding inhibitor potency, dose response, biochemical, fluorescence polarization, FITC-PAM2 peptide (AID 602259); format: functional; settings: read-out: IC50_Mean
# [29] = biological target: T3, Polyadenylate-binding protein 1; assay: PABP1 MLLE–PAM2 interaction inhibitors, dose response, miRNA deadenylation inhibitor project, biochemical, fluorescence polarization, Cy5-PAM2 peptide, secondary (AID 602260); format: functional; settings: read-out: IC50_Mean
# [30] = biological target: T4, High affinity choline transporter 1 (Homo sapiens, UniProt Q9GZV3); assay: CHT inhibitors, dose response, cell-based, 5-point CRC, membrane potential dye (AID 504840); format: functional
# T4 sequence (Q9GZV3 whole entry): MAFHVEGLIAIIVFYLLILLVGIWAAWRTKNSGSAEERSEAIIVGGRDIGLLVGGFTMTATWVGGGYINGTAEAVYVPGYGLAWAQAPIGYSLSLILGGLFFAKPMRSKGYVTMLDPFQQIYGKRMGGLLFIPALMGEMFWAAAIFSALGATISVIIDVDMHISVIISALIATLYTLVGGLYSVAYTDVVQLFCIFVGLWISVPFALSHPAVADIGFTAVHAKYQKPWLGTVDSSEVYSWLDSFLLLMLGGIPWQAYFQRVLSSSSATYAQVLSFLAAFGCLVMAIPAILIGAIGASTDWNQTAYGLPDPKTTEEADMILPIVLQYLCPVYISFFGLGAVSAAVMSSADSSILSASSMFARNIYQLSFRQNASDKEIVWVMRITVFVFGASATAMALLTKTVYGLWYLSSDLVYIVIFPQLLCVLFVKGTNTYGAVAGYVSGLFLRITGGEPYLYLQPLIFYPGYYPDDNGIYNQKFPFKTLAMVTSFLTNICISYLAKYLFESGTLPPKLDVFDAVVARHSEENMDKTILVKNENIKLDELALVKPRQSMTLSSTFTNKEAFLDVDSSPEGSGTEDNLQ
# Chain of Induced myeloid leukemia cell differentiation protein Mcl-1 (Q07820 whole entry): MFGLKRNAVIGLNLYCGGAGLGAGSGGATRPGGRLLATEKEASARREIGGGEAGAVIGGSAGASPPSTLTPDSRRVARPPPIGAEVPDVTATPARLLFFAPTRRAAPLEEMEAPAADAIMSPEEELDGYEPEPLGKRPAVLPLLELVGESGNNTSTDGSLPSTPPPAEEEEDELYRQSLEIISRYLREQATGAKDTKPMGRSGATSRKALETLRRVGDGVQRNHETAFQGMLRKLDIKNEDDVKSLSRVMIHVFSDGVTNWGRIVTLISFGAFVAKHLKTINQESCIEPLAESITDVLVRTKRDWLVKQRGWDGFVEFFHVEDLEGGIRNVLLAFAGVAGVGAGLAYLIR
# T3 sequence (P11940 whole entry): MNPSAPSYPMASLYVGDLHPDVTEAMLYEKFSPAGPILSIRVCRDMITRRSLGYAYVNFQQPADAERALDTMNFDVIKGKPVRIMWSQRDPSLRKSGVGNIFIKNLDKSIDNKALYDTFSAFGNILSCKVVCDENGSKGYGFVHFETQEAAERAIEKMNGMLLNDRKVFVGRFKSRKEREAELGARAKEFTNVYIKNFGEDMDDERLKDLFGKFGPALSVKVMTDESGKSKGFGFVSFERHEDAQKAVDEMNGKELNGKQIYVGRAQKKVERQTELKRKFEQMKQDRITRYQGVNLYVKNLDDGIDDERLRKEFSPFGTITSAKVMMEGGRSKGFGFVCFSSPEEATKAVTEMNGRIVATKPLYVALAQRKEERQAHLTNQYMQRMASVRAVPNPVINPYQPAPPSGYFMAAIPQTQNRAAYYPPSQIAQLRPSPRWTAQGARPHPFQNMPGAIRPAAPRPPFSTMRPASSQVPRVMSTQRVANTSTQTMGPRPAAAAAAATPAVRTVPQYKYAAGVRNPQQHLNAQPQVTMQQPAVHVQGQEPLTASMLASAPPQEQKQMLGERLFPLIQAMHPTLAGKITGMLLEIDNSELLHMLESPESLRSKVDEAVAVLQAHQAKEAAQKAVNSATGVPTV
# Chain of Genome polyprotein (P29990 2492-3391 limits assumed): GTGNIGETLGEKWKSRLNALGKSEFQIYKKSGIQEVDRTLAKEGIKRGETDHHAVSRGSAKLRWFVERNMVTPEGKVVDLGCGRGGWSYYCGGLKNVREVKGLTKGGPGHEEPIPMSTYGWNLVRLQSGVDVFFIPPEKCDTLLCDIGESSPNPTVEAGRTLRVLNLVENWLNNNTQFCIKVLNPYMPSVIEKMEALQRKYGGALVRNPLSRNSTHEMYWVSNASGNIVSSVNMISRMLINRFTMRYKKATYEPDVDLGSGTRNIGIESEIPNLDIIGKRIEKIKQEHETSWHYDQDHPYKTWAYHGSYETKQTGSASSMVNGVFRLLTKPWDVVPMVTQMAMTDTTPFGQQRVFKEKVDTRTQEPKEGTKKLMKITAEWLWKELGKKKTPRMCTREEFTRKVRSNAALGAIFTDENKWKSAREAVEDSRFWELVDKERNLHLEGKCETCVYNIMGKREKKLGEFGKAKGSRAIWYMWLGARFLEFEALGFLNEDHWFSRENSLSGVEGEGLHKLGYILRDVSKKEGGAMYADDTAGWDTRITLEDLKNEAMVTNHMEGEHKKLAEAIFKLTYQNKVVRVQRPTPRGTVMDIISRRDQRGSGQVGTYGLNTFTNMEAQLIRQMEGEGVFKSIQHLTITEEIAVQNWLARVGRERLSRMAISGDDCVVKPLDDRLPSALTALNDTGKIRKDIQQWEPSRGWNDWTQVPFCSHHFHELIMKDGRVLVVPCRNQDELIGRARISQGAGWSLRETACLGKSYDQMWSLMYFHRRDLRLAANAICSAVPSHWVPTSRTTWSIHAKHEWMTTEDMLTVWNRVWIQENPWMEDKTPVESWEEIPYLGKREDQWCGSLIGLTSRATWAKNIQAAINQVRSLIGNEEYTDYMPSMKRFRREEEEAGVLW
# Chain of Large T antigen (P03070 whole entry): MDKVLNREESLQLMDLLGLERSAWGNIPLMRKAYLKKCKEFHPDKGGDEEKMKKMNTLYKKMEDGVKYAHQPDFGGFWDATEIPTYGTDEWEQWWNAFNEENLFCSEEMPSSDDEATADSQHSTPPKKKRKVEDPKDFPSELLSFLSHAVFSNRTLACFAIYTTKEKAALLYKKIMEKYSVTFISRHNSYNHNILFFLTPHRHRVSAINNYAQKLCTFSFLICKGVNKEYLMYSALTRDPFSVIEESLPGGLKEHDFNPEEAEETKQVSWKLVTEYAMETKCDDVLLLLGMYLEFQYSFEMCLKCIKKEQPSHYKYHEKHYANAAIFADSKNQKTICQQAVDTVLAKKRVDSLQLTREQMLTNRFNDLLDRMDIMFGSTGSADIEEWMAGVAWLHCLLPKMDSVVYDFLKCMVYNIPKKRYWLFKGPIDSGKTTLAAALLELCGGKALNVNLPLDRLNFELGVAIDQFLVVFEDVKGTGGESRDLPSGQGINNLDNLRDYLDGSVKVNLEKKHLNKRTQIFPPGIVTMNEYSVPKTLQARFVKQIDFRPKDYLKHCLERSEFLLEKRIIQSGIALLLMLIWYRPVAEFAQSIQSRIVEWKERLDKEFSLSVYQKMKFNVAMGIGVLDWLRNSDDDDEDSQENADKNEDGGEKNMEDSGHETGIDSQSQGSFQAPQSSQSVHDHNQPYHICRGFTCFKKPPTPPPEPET
# Chain of Luciferin 4-monooxygenase (P08659 whole entry): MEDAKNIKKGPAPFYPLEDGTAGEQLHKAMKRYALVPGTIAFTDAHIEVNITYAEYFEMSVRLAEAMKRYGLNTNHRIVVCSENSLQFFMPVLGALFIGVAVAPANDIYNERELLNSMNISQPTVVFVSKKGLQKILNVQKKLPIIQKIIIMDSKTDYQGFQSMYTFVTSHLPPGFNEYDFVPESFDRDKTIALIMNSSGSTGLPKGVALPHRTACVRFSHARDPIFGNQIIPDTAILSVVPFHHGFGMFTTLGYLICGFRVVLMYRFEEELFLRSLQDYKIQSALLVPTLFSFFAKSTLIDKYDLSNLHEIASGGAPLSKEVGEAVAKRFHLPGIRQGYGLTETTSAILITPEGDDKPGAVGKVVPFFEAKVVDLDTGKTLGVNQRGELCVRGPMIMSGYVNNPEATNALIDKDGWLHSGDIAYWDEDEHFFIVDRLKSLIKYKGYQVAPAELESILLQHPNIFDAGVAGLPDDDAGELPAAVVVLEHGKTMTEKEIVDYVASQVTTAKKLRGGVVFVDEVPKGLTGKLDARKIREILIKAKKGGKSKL
smiles,measurement,setting,value
Cc1c(NS(=O)(=O)c2cc(NC(=O)CCN3CCCC(C)C3)ccc2Cl)c(=O)n(-c2ccccc2)n1C (stereo unspecified),IC50,[1],4.67 µM (not active)
C[C@@]12C(=O)Nc3ccc(Cl)cc3C(=O)N1[C@H]1c3ccccc3OC[C@@H]1[C@@H]2c1ccccc1,AC50,[2],0.611 µM (active)
COc1ccc(C(=O)N(C)Cc2cnn(Cc3ccccc3)c2)cc1S(=O)(=O)N1CCOCC1,IC50,[3],> 80 µM (inactive)
CCCOc1ccc(N2C(=O)CC(N3CCC(C(=O)OCC)CC3)C2=O)cc1 (stereo unspecified),AC50,[2],3.1 µM (active)
Cc1ccc2c(c1)COc1c3ccc(C(=O)N[C@@H](C)CO)cc3nn1-2,IC50,[4],41.5 µM (active)
same,CC50,[5],> 50 µM (active)
CCN(CC)C1=N/C(=C\c2ccc(OC)cc2)C(=O)N1c1ccccc1,IC50,[4],4.49 µM (active)
same,CC50,[5],9.86 µM (active)
Cc1ccc(NC(=S)Nc2cccc3cnccc23)cc1,IC50,[6],> 50 µM (not active)
COc1ccc(N(C)C(=S)Nc2ccc3nc(C)c(C)nc3c2)cc1,IC50,[6],> 50 µM (not active)
c1ccc(Cn2nnc3c(N4CCCCCC4)ncnc32)cc1,IC50,[4],49.5 µM (active)
same,CC50,[5],17 µM (active)
COc1cc(/C=C/c2nc3ccccc3c(=O)n2-c2cccc(O)c2)ccc1O,IC50,[1],8.49 µM (active)
COc1ccccc1C(=O)NNC(=S)NC(=O)c1ccco1,AC50,[2],1.42 µM (active)
C=CCN1C(=O)/C(=C/c2cc(C)n(-c3cccnc3)c2C)C(=O)NC1=S,EC50,[7],53.3 µM (active)
same,AC50,[8],16.8 µM (active)
same,IC50,[9],66.7 µM (active)
same,EC50,[10],89.5 µM (active)
same,IC50,[6],> 50 µM (not active)
COc1cc2c(cc1OC)C1=C(C#N)CN(CC(=O)O)CN1CC2,EC50,[11],> 112 µM (not active)
same,IC50,[6],34.1 µM (active)
same,EC50,[12],> 112 µM (not active)
Nc1ccc(-c2nc3cc(-c4nc5ccccc5o4)ccc3[nH]2)cc1,IC50,[4],33.4 µM (active)
same,CC50,[13],> 40 µM (active)
same,CC50,[5],48.2 µM (active)
Cc1cccc(-c2csc(N)c2C(=O)OC(C)C)c1,IC50,[6],> 50 µM (not active)
Cn1c2ccccc2c(=O)c2c(=O)n(Cc3ccco3)c(-c3ccc(Cl)cc3Cl)nc21,IC50,[4],10.2 µM (active)
same,EC50,[14],0.978 µM (active)
same,CC50,[5],15.5 µM (active)
same,EC50,[15],> 30 µM (not active)
CCOC(=O)CN1C(=O)N[C@@H](c2cccc(F)c2)C(C(C)=O)=C1C,IC50,[4],12.8 µM (active)
same,CC50,[5],44.1 µM (active)
O=C(Nc1ccccn1)c1ccc([N+](=O)[O-])o1,CC50,[16],13.4 µM (active)
same,CC50,[17],26.3 µM (active)
same,IC50,[18],13.6 µM (active)
same,CC50,[19],> 25 µM (active)
O=C(N/N=C/c1ccc(O)c(O)c1)/C(O)=C\C1=NC2(CCCC2)Cc2ccccc21,IC50,[1],3.56 µM (active)
O=C1CCC/C(=N/Nc2ccc(Cl)cc2)C1,CC50,[17],> 40 µM (active)
same,IC50,[18],16.9 µM (active)
same,IC50,[20],93.3 µM (active)
same,EC50,[21],> 150 µM (inactive)
O=C(N/N=C\c1ccc([N+](=O)[O-])s1)c1cncc(Br)c1,CC50,[16],4.83 µM (active)
same,EC50,[22],4.15 µM (active)
same,CC50,[17],5.8 µM (active)
same,EC50,[7],0.452 µM (active)
same,IC50,[18],12.6 µM (active)
same,AC50,[8],4.34 µM (active)
same,EC50,[10],1.09 µM (active)
same,AC50,[23],7.04 µM (active)
same,EC50,[21],29.4 µM (active)
CC1(C)CC(=O)C(=CNc2cccc(/N=C/C3=C(O)CC(C)(C)CC3=O)n2)C(=O)C1,IC50,[1],1.31 µM (not active)
CC(/C=N\Nc1n[nH]c2c3cccc(C)c3nc-2n1)=C\c1ccco1,IC50,[1],3.46 µM (active)
C[C@@H]1CN([C@@H](C)CO)C(=O)c2cccc(NC(=O)c3nc4ccccc4s3)c2O[C@H]1CN(C)C(=O)Nc1cccc2ccccc12,AC50,[24],0.802 µM (active)
same,AC50,[25],0.766 µM (active)
same,AC50,[26],0.595 µM (active)
COc1ccc(-c2ccc([C@H]3[C@H](C#N)N(C(=O)c4cccc(F)c4)[C@H]3CO)cc2)cc1,AC50,[27],2.71 µM (active)
same,AC50,[24],2 µM (active)
same,AC50,[25],1.85 µM (active)
same,AC50,[26],2.24 µM (active)
Cc1ccc(C(=O)/C=C/C(=O)O)cc1,IC50,[28],> 66 µM (inactive)
same,IC50,[29],> 66 µM (inactive)
same,IC50,[30],10.5 µM (active)
same,IC50,[20],> 100 µM (active)
NC(=O)COc1ccc2c3c(c(=O)oc2c1)CCCCC3,IC50,[4],42.2 µM (active)
same,EC50,[22],> 38 µM (not active)
same,EC50,[21],> 160 µM (inconclusive)
